Key:
Hep2 cells = assay: MTT cytotoxicity test on Hep2 cell line; type: cell-based, Human
Description: The oils of the plant as an extract are used which have been obtained by cold pressing and it has been ensured that the extract is fresh and pure. The extracts that have been obtained through the whole study have been initially diluted with solvents, filtered and sterilized. […] The maximum dose and dilution sub doses that have been determined accordingly have been repeated controlled groups. Different amounts of Hep2 cells have been tested in flat bottomed 96 well plates for cell culture during the first stage of the study and it has been determined that […] cells were optimal for the monolayer layer of 2×10^4 cell per well. A pure oil of Nigella plant extract, which has been tested inside various solvents in terms of penetration into cells and homogenous distribution. MTT tests have been carried out relating to Hep2 cells in solvents too. DMSO was selected from solvents such as DMSO and Methanol and was used and cytopathic doses have not been exceeded during the whole study (FIG. 2). Essential oil has been obtained from Nigella and emulsions have been obtained from fixed oil plants (Ginger etc.) and compounds.

Toxoplasma gondii = assay: ELISA test of efficiency against Toxoplasma gondii in infected Hep2 cells; type: cell-based; settings: for ELISA OD value according to positive control (reproduction) / ELISA value in comparison to PK: 48 hours; for ELISA value: 72 hour plates
Description: An ELISA (Enzyme-Linked Immunosorbent Assay) test (FIG. 4) has been planned and conducted in order to determine efficiency against Toxoplasma gondii.
The ELISA test has been carried out on flat bottom well plates having 96 wells. First of all the base of the plates have been covered with a suitable amount of Hep2 cells. […] Following this all wells have been processed again with different doses (determined with MTT) of Pyrimtheamine, Sulphadiazine and Nigella Sativa extract, prepared with DMSO.
The result was read by the ELISA reader device in 30 minutes

## CCc1nc(N)nc(N)c1-c1ccc(Cl)cc1 [Pyrimethamine]
Hep2 cells; 1 μg/ml
  OD value in MTT test: 1,228
Hep2 cells; 2 μg/ml
  OD value in MTT test: 1,198
Hep2 cells; 4 μg/ml
  OD value in MTT test: 0.623
Hep2 cells; 8 μg/ml
  OD value in MTT test: 0.310
Hep2 cells; 16 μg/ml
  OD value in MTT test: 0.209
Hep2 cells; 32 μg/ml
  OD value in MTT test: 0.097
Toxoplasma gondii; 0.5 μg/ml
  ELISA OD value according to positive control (reproduction): 75%
Toxoplasma gondii; 1 μg/ml (printed '2.1 and 0.5 μg/ml doses')
  ELISA OD value according to positive control (reproduction): 54%
Toxoplasma gondii; 2 μg/ml (printed '2.1 and 0.5 μg/ml doses')
  ELISA OD value according to positive control (reproduction): 56%
Toxoplasma gondii; 4 μg/ml
  ELISA OD value according to positive control (reproduction): 45%
Toxoplasma gondii; 4 μg/ml (1st dose)
  ELISA value: 48%
Toxoplasma gondii; 2nd dose of series starting from 4 μg/ml
  ELISA value: 29%
Toxoplasma gondii; 3rd dose of series starting from 4 μg/ml
  ELISA value: 36%
Toxoplasma gondii; 4th dose of series starting from 4 μg/ml
  ELISA value: 41%
Toxoplasma gondii; 5th dose of series starting from 4 μg/ml
  ELISA value: 32%
Toxoplasma gondii; 6th dose of series starting from 4 μg/ml
  ELISA value: 27%
Toxoplasma gondii; 7th dose of series starting from 4 μg/ml
  ELISA value: 27%
Toxoplasma gondii; 8th dose of series starting from 4 μg/ml
  ELISA value: 73%

## Nc1ccc(S(=O)(=O)Nc2ncccn2)cc1 [Sulphadiazine]
Hep2 cells; 50 μg/ml
  OD value in MTT test: 1,002
Hep2 cells; 100 μg/ml
  OD value in MTT test: 0.827
Hep2 cells; 200 μg/ml
  OD value in MTT test: 0.254
Toxoplasma gondii; 25 μg/ml
  ELISA value in comparison to PK: 80%
Toxoplasma gondii; 50 μg/ml
  ELISA value in comparison to PK: 97%
Toxoplasma gondii; 4th dose of series from 100 μg/ml (concentration not given)
  ELISA value in comparison to PK: 79%
Toxoplasma gondii; 5th dose of series from 100 μg/ml (concentration not given)
  ELISA value in comparison to PK: 61%
Toxoplasma gondii; 6th dose of series from 100 μg/ml (concentration not given)
  ELISA value in comparison to PK: 95%
Toxoplasma gondii; 7th dose of series from 100 μg/ml (concentration not given)
  ELISA value in comparison to PK: 84%
Toxoplasma gondii; 8th dose of series from 100 μg/ml (concentration not given)
  ELISA value in comparison to PK: 97%
Toxoplasma gondii; concentration of 100 (unit not given)
  ELISA value in comparison to PK: 51%
Toxoplasma gondii; 100 μg/ml (1st dose)
  ELISA value: 52%
Toxoplasma gondii; 2nd dose of series starting from 100 μg/ml
  ELISA value: 57%
Toxoplasma gondii; 3rd dose of series starting from 100 μg/ml
  ELISA value: 52%
Toxoplasma gondii; 4th dose of series starting from 100 μg/ml
  ELISA value: 77%
Toxoplasma gondii; 5th dose of series starting from 100 μg/ml
  ELISA value: 75%
Toxoplasma gondii; 6th dose of series starting from 100 μg/ml
  ELISA value: 55%
Toxoplasma gondii; 7th dose of series starting from 100 μg/ml
  ELISA value: 52%
Toxoplasma gondii; 8th dose of series starting from 100 μg/ml
  ELISA value: 84%
